According to PubChem BioAssay (NCI):
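The compound was tested at five concentrations on cells cultured in 96-well plates, with a 48-hour exposure period. GI50 = concentration required for 50% inhibition of growth. TGI is the concentration that stops growth completely.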

Legend:
Test in all cases: inhibition of tumour cell growth, NCI panel, 48 h
786-0 renal = tested on: 786-0 renal
A498 renal = tested on: A498 renal
A549 NSCLC = tested on: A549 NSCLC
ACHN renal = tested on: ACHN renal
BT-549 breast = tested on: BT-549 breast
CAKI-1 renal = tested on: CAKI-1 renal
CCRF-CEM leukemia = tested on: CCRF-CEM leukemia
COLO 205 colon = tested on: COLO 205 colon
DU-145 prostate = tested on: DU-145 prostate
EKVX NSCLC = tested on: EKVX NSCLC
HCC-2998 colon = tested on: HCC-2998 colon
HCT-116 colon = tested on: HCT-116 colon
HCT-15 colon = tested on: HCT-15 colon
HL-60(TB) leukemia = tested on: HL-60(TB) leukemia
HOP-62 NSCLC = tested on: HOP-62 NSCLC
HOP-92 NSCLC = tested on: HOP-92 NSCLC
HS 578T breast = tested on: HS 578T breast
HT29 colon = tested on: HT29 colon
IGROV1 ovarian = tested on: IGROV1 ovarian
K-562 leukemia = tested on: K-562 leukemia
KM12 colon = tested on: KM12 colon
LOX IMVI melanoma = tested on: LOX IMVI melanoma
M14 melanoma = tested on: M14 melanoma
MALME-3M melanoma = tested on: MALME-3M melanoma
MCF7 breast = tested on: MCF7 breast
MDA-MB-231 breast = tested on: MDA-MB-231 breast
MDA-MB-435 = tested on: MDA-MB-435
MDA-MB-468 breast = tested on: MDA-MB-468 breast
MOLT-4 leukemia = tested on: MOLT-4 leukemia
NCI-H226 lung = tested on: NCI-H226 lung
NCI-H23 lung = tested on: NCI-H23 lung
NCI-H460 lung = tested on: NCI-H460 lung
NCI-H522 lung = tested on: NCI-H522 lung
OVCAR-3 ovarian = tested on: OVCAR-3 ovarian
OVCAR-4 ovarian = tested on: OVCAR-4 ovarian
OVCAR-5 ovarian = tested on: OVCAR-5 ovarian
OVCAR-8 ovarian = tested on: OVCAR-8 ovarian
PC-3 prostate = tested on: PC-3 prostate
RPMI-8226 leukemia = tested on: RPMI-8226 leukemia
RXF 393 renal = tested on: RXF 393 renal
SF-268 CNS = tested on: SF-268 CNS
SF-295 CNS = tested on: SF-295 CNS
SF-539 CNS = tested on: SF-539 CNS
SK-MEL-2 melanoma = tested on: SK-MEL-2 melanoma
SK-MEL-28 melanoma = tested on: SK-MEL-28 melanoma
SK-MEL-5 melanoma = tested on: SK-MEL-5 melanoma
SK-OV-3 ovarian = tested on: SK-OV-3 ovarian
SN12C renal = tested on: SN12C renal
SNB-19 CNS = tested on: SNB-19 CNS
SR leukemia = tested on: SR leukemia
SW-620 colon = tested on: SW-620 colon
T-47D breast = tested on: T-47D breast
TK-10 renal = tested on: TK-10 renal
U251 CNS = tested on: U251 CNS
UACC-257 melanoma = tested on: UACC-257 melanoma
UACC-62 melanoma = tested on: UACC-62 melanoma
UO-31 renal = tested on: UO-31 renal

With `C=CC(=O)N1CCN(c2ccc3nc4c(nc3c2C(F)(F)F)C(=O)c2ncccc2C4=O)CC1` the GI50 (786-0 renal) was 9.96 µM, the TGI (786-0 renal) was 66.6 µM and the GI50 (A498 renal) was 15.6 µM. The TGI (A498 renal) was 29.8 µM, the GI50 (A549 NSCLC) was 3.05 µM and the TGI (A549 NSCLC) was 14.7 µM. For the same compound, the GI50 (ACHN renal) was 6.41 µM, the TGI (ACHN renal) was 20.5 µM and the GI50 (BT-549 breast) was 7.17 µM. For the same compound, the TGI (BT-549 breast) was 20.3 µM, the GI50 (CAKI-1 renal) was 9.74 µM and the TGI (CAKI-1 renal) was 38 µM. The GI50 (CCRF-CEM leukemia) was 2.99 µM, the TGI (CCRF-CEM leukemia) was over 98 µM and the GI50 (COLO 205 colon) was 2.42 µM. For the same compound, the TGI (COLO 205 colon) was 7.83 µM, the GI50 (DU-145 prostate) was 6.16 µM and the TGI (DU-145 prostate) was 20 µM. The GI50 (EKVX NSCLC) was 8.45 µM, the TGI (EKVX NSCLC) was 21.9 µM and the GI50 (HCC-2998 colon) was 5.44 µM. The TGI (HCC-2998 colon) was 18.1 µM, the GI50 (HCT-116 colon) was 2.67 µM and the TGI (HCT-116 colon) was 7.4 µM. It also gave a GI50 (HCT-15 colon) of 2.39 µM, a TGI (HCT-15 colon) of 11.9 µM and a GI50 (HL-60(TB) leukemia) of 3.34 µM. The TGI (HL-60(TB) leukemia) was over 98 µM, the GI50 (HOP-62 NSCLC) was 10.9 µM and the TGI (HOP-62 NSCLC) was 39.8 µM. The GI50 (HOP-92 NSCLC) was 19 µM, the TGI (HOP-92 NSCLC) was 57.1 µM and the GI50 (HS 578T breast) was 16.9 µM. The TGI (HS 578T breast) was 56.4 µM, the GI50 (HT29 colon) was 3.27 µM and the TGI (HT29 colon) was 11 µM. It also gave a GI50 (IGROV1 ovarian) of 2.9 µM, a TGI (IGROV1 ovarian) of 12.3 µM and a GI50 (K-562 leukemia) of 4.4 µM. The TGI (K-562 leukemia) was over 98 µM, the GI50 (KM12 colon) was 4.61 µM and the TGI (KM12 colon) was 55.3 µM. It also gave a GI50 (LOX IMVI melanoma) of 2.09 µM, a TGI (LOX IMVI melanoma) of 6.37 µM and a GI50 (M14 melanoma) of 2.53 µM. For the same compound, the TGI (M14 melanoma) was 12.3 µM, the GI50 (MALME-3M melanoma) was 1.3 µM and the TGI (MALME-3M melanoma) was 2.67 µM. It also gave a GI50 (MCF7 breast) of 1.77 µM, a TGI (MCF7 breast) of 5.48 µM and a GI50 (MDA-MB-231 breast) of 2.95 µM. It also gave a TGI (MDA-MB-231 breast) of 10.7 µM, a GI50 (MDA-MB-435) of 1.68 µM and a TGI (MDA-MB-435) of 3.21 µM. The GI50 (MDA-MB-468 breast) was 1.58 µM, the TGI (MDA-MB-468 breast) was 3.67 µM and the GI50 (MOLT-4 leukemia) was 3.28 µM. The TGI (MOLT-4 leukemia) was 21.2 µM, the GI50 (NCI-H226 lung) was 10.9 µM and the TGI (NCI-H226 lung) was 27.7 µM. The GI50 (NCI-H23 lung) was 1.97 µM, the TGI (NCI-H23 lung) was 9.88 µM and the GI50 (NCI-H460 lung) was 1.25 µM. For the same compound, the TGI (NCI-H460 lung) was 3.75 µM, the GI50 (NCI-H522 lung) was 9.95 µM and the TGI (NCI-H522 lung) was 23.8 µM. For the same compound, the GI50 (OVCAR-3 ovarian) was 2.24 µM, the TGI (OVCAR-3 ovarian) was 6.35 µM and the GI50 (OVCAR-4 ovarian) was 2.41 µM. The TGI (OVCAR-4 ovarian) was 6.7 µM, the GI50 (OVCAR-5 ovarian) was 11.8 µM and the TGI (OVCAR-5 ovarian) was 25.2 µM. For the same compound, the GI50 (OVCAR-8 ovarian) was 2.99 µM, the TGI (OVCAR-8 ovarian) was 11.6 µM and the GI50 (PC-3 prostate) was 2.52 µM. The TGI (PC-3 prostate) was over 98 µM, the GI50 (RPMI-8226 leukemia) was 3.1 µM and the TGI (RPMI-8226 leukemia) was 40.7 µM. The GI50 (RXF 393 renal) was 3.59 µM, the TGI (RXF 393 renal) was 15.8 µM and the GI50 (SF-268 CNS) was 7.76 µM. The TGI (SF-268 CNS) was 63.6 µM, the GI50 (SF-295 CNS) was 4.1 µM and the TGI (SF-295 CNS) was 16.9 µM. For the same compound, the GI50 (SF-539 CNS) was 3.39 µM, the TGI (SF-539 CNS) was 11.7 µM and the GI50 (SK-MEL-2 melanoma) was 3.01 µM. For the same compound, the TGI (SK-MEL-2 melanoma) was 13.2 µM, the GI50 (SK-MEL-28 melanoma) was 10.8 µM and the TGI (SK-MEL-28 melanoma) was 28.2 µM. For the same compound, the GI50 (SK-MEL-5 melanoma) was 1.39 µM, the TGI (SK-MEL-5 melanoma) was 2.67 µM and the GI50 (SK-OV-3 ovarian) was 19.4 µM. For the same compound, the TGI (SK-OV-3 ovarian) was 79.6 µM, the GI50 (SN12C renal) was 2.27 µM and the TGI (SN12C renal) was 8.31 µM. The GI50 (SNB-19 CNS) was 5.4 µM, the TGI (SNB-19 CNS) was 20.1 µM and the GI50 (SR leukemia) was 3.18 µM. It also gave a TGI (SR leukemia) of over 98 µM, a GI50 (SW-620 colon) of 2.88 µM and a TGI (SW-620 colon) of 11 µM. For the same compound, the GI50 (T-47D breast) was 2.66 µM, the TGI (T-47D breast) was 9.9 µM and the GI50 (TK-10 renal) was 18.6 µM. It also gave a TGI (TK-10 renal) of 97.6 µM, a GI50 (U251 CNS) of 3.11 µM and a TGI (U251 CNS) of 13.3 µM. For the same compound, the GI50 (UACC-257 melanoma) was 1.72 µM, the TGI (UACC-257 melanoma) was 4.16 µM and the GI50 (UACC-62 melanoma) was 2.05 µM. The TGI (UACC-62 melanoma) was 5.31 µM, the GI50 (UO-31 renal) was 11 µM and the TGI (UO-31 renal) was 25.7 µM.
